The record followed here is US11066443B2 (Hoffmann-La Roche Inc., priority 2017, dated 2021).

For this assay, the system named is P. aeruginosa NCTC11454. The experiment in a line: Antimicrobial susceptibility testing: 50% growth inhibitory concentration (IC50) determination. Type of assay: cell-based. The following applies: Pseudomonas aeruginosa, Iso-Sensitest broth, OD 600 nm every 20 minutes over 16h, growth inhibition during logarithmic growth. The procedure:
The in vitro antimicrobial activity of the compounds was alternatively determined according to the following procedure: The assay used a 10-points Iso-Sensitest broth medium to measure quantitatively the in vitro activity of the compounds against P. aeruginosa NCTC11454. Stock compounds in DMSO were serially twofold diluted (e.g. range from 50 to 0.097 μM final concentration) in 384 wells microtiter plates and inoculated with 49 μl the bacterial suspension in Iso-Sensitest medium to have a final cell concentration of ˜5×10^(5) CFU/ml in a final volume/well of 50 ul/well. Microtiter plates were incubated at 35±2° C. Bacterial cell growth was determined with the measurement of optical density at λ=600 nm each 20 minutes over a time course of 16h. Growth inhibition was calculated during the logarithmic growth of the bacterial cells with determination of the concentration inhibiting 50% (IC50) and 90% (IC90) of the growth. Table 2 provides the 50% growth inhibitory concentrations (IC50) in micromoles per liter of the compounds of present invention obtained against P. aeruginosa NCTC11454.

As usually defined, the IC50 is the point on the concentration scale where inhibition reaches its midpoint. The low end stands for inhibition by little substance, the high end for a need for much substance. For the compound `CN1C(=O)[C@H](CCCCN)NC(=O)[C@H](CCCN)NCc2ccccc2Sc2c(ccc(-c3ccccc3)c2Cl)CNC(=O)[C@@H]1Cc1c[nH]c2ccccc12` [Example 42, (12S,15S,18S)-15-(4-Amino-butyl)-18-(3-amino-propyl)-4-chloro-12-(1H-indol-3-ylmethyl)-13-methyl-5-phenyl-2-thia-10,13,16,19-tetraaza-tricyclo[19.4.0.0*3,8*]pentacosa-1(25),3,5,7,21,23-hexaene-11,14,17-trione], the IC50 is 3.47 µM.

For the compound `CN1C(=O)[C@H](CCCCN)NC(=O)[C@H](CCCN)NCc2ccccc2Sc2ncc(Cl)cc2CNC(=O)[C@@H]1Cc1c[nH]c2ccccc12` [Example 43], the IC50 was found to be 22.9 µM.

Compound `Cc1[nH]c2ccccc2c1C[C@H]1C(=O)NCc2cc(-c3ccnc(Cl)c3)cc(Cl)c2Sc2ncccc2CN[C@@H](CCCN)C(=O)N[C@@H](CCCCN)C(=O)N1C` [Example 44, (11S,14S,17S)-14-(4-Amino-butyl)-11-(3-amino-propyl)-25-chloro-23-(2-chloro-pyridin-4-yl)-16-methyl-17-(2-methyl-1H-indol-3-ylmethyl)-2-thia-4,10,13,16,19-pentaaza-tricyclo[19.4.0.0*3,8*]pentacosa-1(25),3(8),4,6,21,23-hexaene-12,15,18-trione] returned an IC50 of 27 µM.

Compound `CN1C(=O)[C@H](CCCCN)NC(=O)[C@H](CCCN)NCc2cccnc2Sc2c(Cl)cc(C#CCOCc3ccccc3)cc2CNC(=O)[C@@H]1Cc1c[nH]c2ccccc12` [Example 45, (11S,14S,17S)-14-(4-Amino-butyl)-11-(3-amino-propyl)-23-(3-benzyloxy-prop-1-ynyl)-25-chloro-17-(1H-indol-3-ylmethyl)-16-methyl-2-thia-4,10,13,16,19-pentaaza-tricyclo[19.4.0.0*3,8*]pentacosa-1(25),3(8),4,6,21,23-hexaene-12,15,18-trione] had an IC50 of 6.07 µM.

As to `CN1C(=O)[C@H](CCCCN)NC(=O)[C@H](CCCN)NCc2ccccc2Sc2nc(N3CCOCC3)ccc2CNC(=O)[C@@H]1Cc1c[nH]c2ccccc12` [Example 46], it took 20.3 µM to reach half-maximal inhibition (IC50).

`Cc1[nH]c2ccccc2c1C[C@H]1C(=O)NCc2c(-c3ccncc3)ccc(Cl)c2Sc2ncccc2CN[C@@H](CCCN)C(=O)N[C@@H](CCCCN)C(=O)N1C` [Example 47, (11S,14S,17S)-14-(4-Amino-butyl)-11-(3-amino-propyl)-25-chloro-16-methyl-17-(2-methyl-1H-indol-3-ylmethyl)-22-pyridin-4-yl-2-thia-4,10,13,16,19-pentaaza-tricyclo[19.4.0.0*3,8*]pentacosa-1(25),3(8),4,6,21,23-hexaene-12,15,18-trione] showed a half-maximal inhibitory concentration (IC50) of 2.75 µM.

The compound `CN1C(=O)[C@H](CCCCN)NC(=O)[C@H](CCCN)NCc2cc(Br)ccc2Sc2c(Cl)cccc2CNC(=O)[C@@H]1Cc1c[nH]c2ccccc12` [Example 48, (12S,15S,18S)-15-(4-Amino-butyl)-18-(3-amino-propyl)-23-bromo-4-chloro-12-(1H-indol-3-ylmethyl)-13-methyl-2-thia-10,13,16,19-tetraaza-tricyclo[19.4.0.0*3,8*]pentacosa-1(25),3,5,7,21,23-hexaene-11,14,17-trione] yielded a concentration for half-maximal inhibition (IC50) of 14.2 µM.

With `CN1C(=O)[C@H](CCCCN)NC(=O)[C@H](CCCN)NCc2cc(-c3ccccc3)ccc2Sc2c(Cl)cccc2CNC(=O)[C@@H]1Cc1c[nH]c2ccccc12` [Example 49, (12S,15S,18S)-15-(4-Amino-butyl)-18-(3-amino-propyl)-4-chloro-12-(1H-indol-3-ylmethyl)-13-methyl-23-phenyl-2-thia-10,13,16,19-tetraaza-tricyclo[19.4.0.0*3,8*]pentacosa-1(25),3,5,7,21,23-hexaene-11,14,17-trione], half-maximal inhibition (IC50) was put at 10.8 µM.

Regarding `CN1C(=O)[C@H](CCCCN)NC(=O)[C@H](CCCN)NCc2cc(-c3ccc(CN)cc3)ccc2Sc2c(Cl)cccc2CNC(=O)[C@@H]1Cc1c[nH]c2ccccc12` [Example 50, (12S,15S,18S)-15-(4-Amino-butyl)-23-(4-aminomethyl-phenyl)-18-(3-amino-propyl)-4-chloro-12-(1H-indol-3-ylmethyl)-13-methyl-2-thia-10,13,16,19-tetraaza-tricyclo[19.4.0.0*3,8*]pentacosa-1(25),3,5,7,21,23-hexaene-11,14,17-trione], the IC50 came to 8.47 µM.

Take `CN1C(=O)[C@H](CCCCN)NC(=O)[C@H](CCCN)NCc2ccc(Br)cc2Sc2c(Cl)cccc2CNC(=O)[C@@H]1Cc1c[nH]c2ccccc12` [Example 51, (12S,15S,18S)-15-(4-Amino-butyl)-18-(3-amino-propyl)-24-bromo-4-chloro-12-(1H-indol-3-ylmethyl)-13-methyl-2-thia-10,13,16,19-tetraaza-tricyclo[19.4.0.0*3,8*]pentacosa-1(25),3,5,7,21,23-hexaene-11,14,17-trione]: half-maximal inhibition (IC50) required 12.3 µM.

`CN1C(=O)[C@H](CCCCN)NC(=O)[C@H](CCCN)NCc2ccc(-c3ccccc3)cc2Sc2c(Cl)cccc2CNC(=O)[C@@H]1Cc1c[nH]c2ccccc12` [Example 52, (12S,15S,18S)-15-(4-Amino-butyl)-18-(3-amino-propyl)-4-chloro-12-(1H-indol-3-ylmethyl)-13-methyl-24-phenyl-2-thia-10,13,16,19-tetraaza-tricyclo[19.4.0.0*3,8*]pentacosa-1(25),3,5,7,21,23-hexaene-11,14,17-trione]: the IC50 worked out at 11.6 µM.

`CN1C(=O)[C@H](CCCCN)NC(=O)[C@H](CCCN)NCc2cccnc2Sc2c(Cl)ccc(-c3cccc(CCN)c3)c2CNC(=O)[C@@H]1Cc1c[nH]c2ccccc12` [Example 54, (11S,14S,17S)-14-(4-Amino-butyl)-22-[3-(2-amino-ethyl)-phenyl]-11-(3-amino-propyl)-25-chloro-17-(1H-indol-3-ylmethyl)-16-methyl-2-thia-4,10,13,16,19-pentaaza-tricyclo[19.4.0.0*3,8*]pentacosa-1(25),3(8),4,6,21,23-hexaene-12,15,18-trione]: the IC50 amounted to 29.1 µM.

`CN1C(=O)[C@H](CCCCN)NC(=O)[C@H](CCCN)NCc2cccnc2Sc2c(Cl)ccc(-c3ccc(N4CCNCC4)cc3)c2CNC(=O)[C@@H]1Cc1c[nH]c2ccccc12` [Example 55, (11S,14S,17S)-14-(4-Amino-butyl)-11-(3-amino-propyl)-25-chloro-17-(1H-indol-3-ylmethyl)-16-methyl-22-(4-piperazin-1-yl-phenyl)-2-thia-4,10,13,16,19-pentaaza-tricyclo[19.4.0.0*3,8*]pentacosa-1(25),3(8),4,6,21,2-hexaene-12,15,18-trione] gave an IC50 of 26.6 µM.
